According to patent US20150093451A1, “METHOD OF INCREASING ENERGY EXPENDITURE” (Reoxcyn Discoveries Group, Inc., priority 2007, published 2015):

System: NRF2
Experiment: Western Blot validation of NRF2 nuclear accumulation and extra-nuclear protein phosphorylation
Format: cell-based, human
Protocol: 8. A Western Blot analysis was done on extra-nuclear and intra-nuclear fractions, separated by differential centrifugation, of serum starved HMVEC-L cell cultures exposed to <1% of a composition of the invention compared with a positive hydrogen peroxide control to determine phosphorylation events (oxidant action) in the extra-nuclear fraction and NRF2 (antioxidant transcription) in the intra-nuclear fraction at 0, 30, 60, 90 and 120 min intervals.
HMVEC-L were treated with 1% of a composition of the invention, nuclear extracts were separated through centrifugal differentiation from the extra-nuclear cytosol at 30, 60 and 120 min and subjected to Western Blot analysis for NRF2. In the Western blot experiment the extra-nuclear fraction was probed for phosphorylated proteins using a combination of anti-phospho serine, threonine and tyrosine antibodies. Virtually all cellular processes are regulated by posttranslational modifications and protein phosphorylation is a prevalent mechanism. Observable changes in protein phosphorylation can lead to a mechanistic understanding of the cellular processes perturbed by compositions of the invention and provide a defined endpoint to better define dose-dependent regulation of cell function by compositions of the invention in vitro, as well as provide a potential candidate molecular marker that may be used to provide in vitro-in vivo correlates. […]

OO [H2O2, Hydrogen peroxide]
phosphorylation of extra-nuclear protein (HMVEC-L extra-nuclear fraction, 1% composition, H2O2 positive control): marked increase in the phosphorylation
NRF2 levels in nuclear extracts (HMVEC-L, 1% ASEA 30, 60, 120 min, H2O2 30 min): did not increase nuclear NRF2 levels
